In patent US8952024B2, “Herbicidal pyrimidone derivatives” (E I du Pont de Nemours and Company, priority 2009, dated 2015):

What was measured:
Format in all cases: in vivo
[1] = system: barnyardgrass (Echinochloa crus-galli); test: Test B flooded paddy test; settings: for Plant response rating, Flood, Barnyardgrass: 250 g ai/ha, flooded paddy test, visual rating on 0 to 100 scale (0 no effect, 100 complete control) after 13 to 15 days; for Plant response rating, Barnyardgrass: Flood (flooded paddy test), 62 g ai/ha, scale 0 to 100, 0 is no effect, 100 is complete control, 13 to 15 days
Summary of the method: (§1)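 Visual scores run from 0 (no effect) to 100 (complete control), assigned by comparison with controls 13 to 15 days after treatment. Test compounds went straight into water standing 3 cm above the soil, around plants at the 2-leaf stage kept in a greenhouse.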

[2] = system: umbrella sedge (Cyperus difformis); test: Test B flooded paddy test; settings: for Plant response rating, Flood, Sedge, Umbrella: 250 g ai/ha, flooded paddy test, visual rating on 0 to 100 scale (0 no effect, 100 complete control) after 13 to 15 days; for Plant response rating, Sedge, Umbrella: Flood (flooded paddy test), 62 g ai/ha, scale 0 to 100, 0 is no effect, 100 is complete control, 13 to 15 days
Summary of the method: as §1

[3] = system: ducksalad (Heteranthera limosa); test: Test B flooded paddy test; settings: for Plant response rating, Flood, Ducksalad: 250 g ai/ha, flooded paddy test, visual rating on 0 to 100 scale (0 no effect, 100 complete control) after 13 to 15 days; for Plant response rating, Ducksalad: Flood (flooded paddy test), 62 g ai/ha, scale 0 to 100, 0 is no effect, 100 is complete control, 13 to 15 days
Summary of the method: as §1

[4] = system: rice (Oryza sativa); test: Test B flooded paddy test; settings: for Plant response rating, Flood, Rice: 250 g ai/ha, flooded paddy test, visual rating on 0 to 100 scale (0 no effect, 100 complete control) after 13 to 15 days; for Plant response rating, Rice: Flood (flooded paddy test), 62 g ai/ha, scale 0 to 100, 0 is no effect, 100 is complete control, 13 to 15 days
Summary of the method: as §1

[5] = system: cocklebur (Xanthium strumarium); test: Test B pre-/postemergence plant response; settings: for Cocklebur plant response rating: scale 0 to 100
Text: (§2) Seeds of plant species selected from blackgrass (Alopecurus myosuroides), downy bromegrass (Bromus tectorum), green foxtail (Setaria viridis), Italian ryegrass (Lolium multiflorum), wheat (Triticum aestivum), wild oat (Avena fatua), deadnettle (henbit deadnettle, Lamium amplexicaule), galium (catchweed bedstraw, Galium aparine), bermudagrass (Cynodon dactylon), Surinam grass (Brachiaria decumbens), cocklebur (Xanthium strumarium), corn (Zea mays), large crabgrass (Digitaria sanguinalis), woolly cupgrass (Eriochloa villosa), giant foxtail (Setaria faberii), goosegrass (Eleusine indica), johnsongrass (Sorghum halepense), kochia (Kochia scoparia), lambsquarters (Chenopodium album), morningglory (Ipomoea coccinea), nightshade (eastern black nightshade, Solanum ptycanthum), yellow nutsedge (Cyperus esculentus), pigweed (Amaranthus retroflexus), ragweed (common ragweed, Ambrosia elatior), Russian thistle (Salsola kali), soybean (Glycine max), sunflower (common oilseed sunflower, Helianthus annuus) and velvetleaf (Abutilon theophrasti) were planted into a blend of loam soil and sand and treated preemergence with test compounds formulated in a non-phytotoxic solvent mixture which included a surfactant.
(§3) At the same time, plants selected from these crop and weed species and also winter barley (Hordeum vulgare), canarygrass (Phalaris minor), chickweed (Stellaria media) and windgrass (Apera spica-venti) were planted in pots containing Redi-Earth® planting medium (Scotts Company, 14111 Scottslawn Road, Marysville, Ohio 43041) comprising spaghnum peat moss, vermiculite, wetting agent and starter nutrients and treated with postemergence applications of some of the test chemicals formulated in the same manner. Plants ranged in height from 2 to 18 cm (1- to 4-leaf stage) for postemergence treatments.
(§4) Treated plants and controls were maintained in a greenhouse for 13 to 15 days, after which time all treated plants were visually evaluated and compared to controls. Plant response ratings, summarized in Table B, are based on a scale of 0 to 100 where 0 is no effect and 100 is complete control. A dash (-) response means no test result.

[6] = system: morningglory (Ipomoea coccinea); test: Test B pre-/postemergence plant response
Text: as §2, §3, §4

[7] = system: corn (Zea mays); test: Test B pre-/postemergence plant response
Text: as §2, §3, §4

[8] = system: blackgrass (Alopecurus myosuroides); test: Test B pre-/postemergence plant response
Text: as §2, §3, §4

[9] = system: bermudagrass (Cynodon dactylon); test: Test B pre-/postemergence plant response
Text: as §2, §3, §4

[10] = system: Surinam grass (Brachiaria decumbens); test: Test B pre-/postemergence plant response
Text: as §2, §3, §4

[11] = system: ragweed (common ragweed, Ambrosia elatior); test: Test B pre-/postemergence plant response
Text: as §2, §3, §4

[12] = system: Italian ryegrass (Lolium multiflorum); test: Test B pre-/postemergence plant response
Text: as §2, §3, §4

[13] = system: soybean (Glycine max); test: Test B pre-/postemergence plant response
Text: as §2, §3, §4

[14] = Postemergence, 31 g ai/ha, scale 0 to 100 (0 no effect, 100 complete control)
[15] = Postemergence, 62 g ai/ha, scale 0 (no effect) to 100 (complete control), 13 to 15 days
[16] = Postemergence, 125 g ai/ha, visual rating after 13 to 15 days, scale 0 (no effect) to 100 (complete control)
[17] = Preemergence, 31 g ai/ha, scale 0 to 100 (0 no effect, 100 complete control)
[18] = Preemergence, 62 g ai/ha, scale 0 to 100 (0 no effect, 100 complete control)
[19] = 250 g ai/ha, Preemergence, 0 to 100 scale
[20] = Preemergence, 125 g ai/ha, 0 to 100 scale
[21] = Postemergence, 250 g ai/ha, scale 0 to 100

CCCCc1ncc(C(=O)C2=C(O)CCCC2=O)c(=O)n1-c1ccccc1 [Compound 42]
0: Plant response rating, Flood, Barnyardgrass [1] | Plant response rating, Barnyardgrass [1] | Plant response rating, Rice [4] | Plant response rating, Cocklebur [5, 14] | Plant response rating, Cocklebur [5, 17] | Plant response rating, Cocklebur [5, 18] | Plant response rating, Morningglory [6, 19] | Plant response rating, Morningglory [6, 17] | Plant response rating, Morningglory [6, 18] | Morningglory plant response rating [6, 20] | Plant response rating, Corn [7, 19] | Plant response rating, Corn [7, 14] | Plant response rating, Corn [7, 17] | Plant response rating, Corn [7, 18] | Corn plant response rating [7, 20] | Plant response rating, Blackgrass [8, 17] | Plant response rating, Blackgrass [8, 18] | Blackgrass plant response rating [8, 20] | Plant response rating, Surinam Grass [10, 17] | Plant response rating, Ragweed [11, 17] | Plant response rating, Ryegrass, Italian [12, 19] | Plant response rating, Ryegrass, Italian [12, 17] | Ryegrass, Italian plant response rating [12, 20] | Plant response rating, Soybean [13, 19] | Plant response rating, Soybean [13, 17] | Soybean plant response rating [13, 20]
50: Plant response rating, Flood, Ducksalad [3]
5: Plant response rating, Blackgrass [8, 19] | Plant response rating, Blackgrass [8, 14] | Plant response rating, Ryegrass, Italian [12, 15]
20: Plant response rating, Flood, Rice [4] | Plant response rating, Corn [7, 16] | Blackgrass plant response rating [8, 21]
45: Plant response rating, Cocklebur [5, 15] | Corn plant response rating [7, 21] | Plant response rating, Surinam Grass [10, 16]
25: Ragweed plant response rating [11, 20]
100: Plant response rating, Bermudagrass [9, 19] | Plant response rating, Bermudagrass [9, 18] | Bermudagrass plant response rating [9, 20]
85: Plant response rating, Cocklebur [5, 16] | Plant response rating, Ragweed [11, 16]
15: Plant response rating, Blackgrass [8, 16]
40: Plant response rating, Surinam Grass [10, 15]
95: Cocklebur plant response rating ([5]; Postemergence, 250 g ai/ha) | Plant response rating, Bermudagrass [9, 16] | Plant response rating, Soybean [13, 16]
90: Plant response rating, Bermudagrass [9, 17] | Plant response rating, Soybean [13, 15]
10: Plant response rating, Corn [7, 15] | Plant response rating, Blackgrass [8, 15] | Surinam Grass plant response rating [10, 20] | Plant response rating, Ryegrass, Italian [12, 16]
30: Plant response rating, Flood, Sedge, Umbrella [2] | Plant response rating, Sedge, Umbrella [2] | Plant response rating, Ducksalad [3]
80: Plant response rating, Ragweed [11, 19]
98: Bermudagrass plant response rating [9, 21]
70: Plant response rating, Morningglory [6, 15] | Plant response rating, Bermudagrass [9, 14]
75: Plant response rating, Morningglory [6, 16] | Plant response rating, Bermudagrass [9, 15] | Plant response rating, Surinam Grass [10, 19] | Plant response rating, Ragweed [11, 15]

Cc1ccc(F)cc1-n1c(-c2ccccc2)ncc(C(=O)C2=C(O)CCCC2=O)c1=O [Compound 44]
70: Plant response rating, Morningglory [6, 15]
95: Plant response rating, Morningglory [6, 19] | Plant response rating, Bermudagrass [9, 15] | Plant response rating, Bermudagrass [9, 16] | Plant response rating, Surinam Grass [10, 15] | Plant response rating, Surinam Grass [10, 16] | Plant response rating, Ragweed [11, 19] | Plant response rating, Ragweed [11, 15] | Plant response rating, Ragweed [11, 16] | Ragweed plant response rating [11, 20] | Plant response rating, Soybean [13, 15] | Plant response rating, Soybean [13, 16]
60: Plant response rating, Blackgrass [8, 19]
10: Plant response rating, Blackgrass [8, 15] | Plant response rating, Ryegrass, Italian [12, 16]
20: Plant response rating, Rice [4] | Plant response rating, Ragweed [11, 17]
85: Corn plant response rating [7, 21]
0: Plant response rating, Barnyardgrass [1] | Plant response rating, Morningglory [6, 17] | Plant response rating, Morningglory [6, 18] | Plant response rating, Corn [7, 19] | Plant response rating, Corn [7, 17] | Plant response rating, Corn [7, 18] | Corn plant response rating [7, 20] | Plant response rating, Blackgrass [8, 14] | Plant response rating, Ryegrass, Italian [12, 19] | Plant response rating, Ryegrass, Italian [12, 17] | Ryegrass, Italian plant response rating [12, 20] | Plant response rating, Soybean [13, 19] | Plant response rating, Soybean [13, 17] | Soybean plant response rating [13, 20]
30: Plant response rating, Flood, Barnyardgrass [1] | Plant response rating, Blackgrass [8, 16] | Blackgrass plant response rating [8, 21] | Plant response rating, Blackgrass [8, 18]
40: Plant response rating, Flood, Rice [4] | Blackgrass plant response rating [8, 20]
98: Cocklebur plant response rating ([5]; Postemergence, 250 g ai/ha) | Bermudagrass plant response rating [9, 21]
75: Plant response rating, Morningglory [6, 16] | Plant response rating, Corn [7, 14]
90: Plant response rating, Flood, Sedge, Umbrella [2] | Plant response rating, Flood, Ducksalad [3] | Plant response rating, Cocklebur [5, 16] | Surinam Grass plant response rating [10, 20]
50: Morningglory plant response rating [6, 20]
45: Plant response rating, Cocklebur [5, 19]
100: Plant response rating, Bermudagrass [9, 19] | Plant response rating, Bermudagrass [9, 17] | Plant response rating, Bermudagrass [9, 18] | Bermudagrass plant response rating [9, 20] | Plant response rating, Surinam Grass [10, 19]
65: Plant response rating, Surinam Grass [10, 17]
5: Plant response rating, Blackgrass [8, 17] | Plant response rating, Ryegrass, Italian [12, 15]
80: Plant response rating, Sedge, Umbrella [2] | Plant response rating, Ducksalad [3] | Plant response rating, Cocklebur [5, 14] | Plant response rating, Cocklebur [5, 15] | Plant response rating, Corn [7, 15] | Plant response rating, Corn [7, 16] | Plant response rating, Bermudagrass [9, 14]
